Data reported in patent US10864163B2, “Therapeutic agents and delivery with microspheres” (UCL Business PLC, priority 2013, dated 2020).
“Also recorded” adds a separate entry of the source.

Assays:
[1] = Attachment of API (doxorubicin) to wetted and non-wetted TIPS microspheres; type: physicochemical; details: doxorubicin 0.5 mg/ml in water, overnight at room temperature, 150 rpm, centrifuged at 13000 rpm for 20 seconds
Description: 100 mg of TIPS microspheres was added to a 7 ml plastic container. The microspheres were wetted with 70% ethanol for 1 minute. The alcohol was removed and the microspheres washed with 5 ml deionised water. 1 ml of doxorubicin (0.5 mg/ml in water) was added to the container. The microspheres and doxorubicin solution were mixed by pipetting and incubated overnight at room temperature with agitation at 150 rpm on an orbital shaker. Control non-wetted microspheres were treated in the same manner. The microspheres were centrifuged at 13000 rpm for 20 seconds.

[2] = Release of API from doxorubicin-loaded wetted TIPS microspheres (FIG. 11d); type: physicochemical; details: doxorubicin attached to pre-wetted TIPS microspheres

COc1cccc2c1C(=O)c1c(O)c3c(c(O)c1C2=O)C[C@@](O)(C(=O)CO)C[C@@H]3O[C@H]1C[C@H](N)[C@H](O)[C@H](C)O1 [doxorubicin]
binding of doxorubicin to the surface of non-wetted, hydrophobic microspheres ([1]; control non-wetted microspheres): separated from the non-wetted samples; also recorded: does not bind to the surface of non-wetted, hydrophobic microspheres | binding of doxorubicin to the surface of wetted TIPS microspheres ([1]; microspheres pre-wetted with 70% ethanol): remained bound to the surface of the wetted microspheres; also recorded: binds well to the surface of pre-wetted TIPS microspheres | release of the API from wetted TIPS microspheres [2]: controlled release of the API is observed over a prolonged period
